# Molecular target: T1, Interstitial collagenase (Homo sapiens, UniProt P03956)
# T1 sequence (P03956 whole entry): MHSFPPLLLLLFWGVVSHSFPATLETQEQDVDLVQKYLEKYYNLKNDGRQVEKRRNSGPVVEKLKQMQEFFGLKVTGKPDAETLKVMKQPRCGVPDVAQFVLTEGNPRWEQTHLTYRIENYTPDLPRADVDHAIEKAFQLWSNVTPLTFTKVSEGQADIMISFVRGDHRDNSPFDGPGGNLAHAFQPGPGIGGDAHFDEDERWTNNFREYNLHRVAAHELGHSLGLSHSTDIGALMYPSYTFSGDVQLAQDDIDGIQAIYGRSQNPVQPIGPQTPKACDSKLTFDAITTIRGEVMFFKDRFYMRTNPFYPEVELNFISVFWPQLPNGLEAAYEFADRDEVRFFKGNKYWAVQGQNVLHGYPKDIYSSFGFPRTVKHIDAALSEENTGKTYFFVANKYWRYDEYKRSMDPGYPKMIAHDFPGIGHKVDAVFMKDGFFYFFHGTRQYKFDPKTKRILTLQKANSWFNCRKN
smiles,measurement,value
COCCN(C1(C(=O)NO)CN(C(=O)C(C)C)C1)S(=O)(=O)c1ccc(OCc2cc(C)nc3ccccc23)cc1,IC50,> 10 µM
